Converted amounts (≈) assume the structure as drawn. Read-outs that look alike come from different tables or passages of the source.
How the values were obtained:
[1] = system: B. subtilis BS01; experiment: Antibacterial activity, broth dilution MIC; type: cell-based; conditions: Bacillus subtilis
Description: (§1) The antibacterial activities of compounds 1–13 were assessed using twofold serial dilutions of antibacterial agents in MH broth, according to previously reported standard methods provided by Clinical and Laboratory Standards Institute (CLSI)[30]. These compounds were tested for their antibacterial activities against Bacillus subtilis BS01, Staphyloccocus aureus ATCC 29213, Staphyloccocus aureus 745524, Bacillus thuringiensis BT01, and Enterococcus faecalis ATCC 29212 using a broth dilution method.

[2] = system: B. thuringiensis BT01; experiment: Antibacterial activity, broth dilution MIC; type: cell-based; conditions: Bacillus thuringiensis
Description: as §1

[3] = system: E. faecalis ATCC 29212; experiment: Antibacterial activity, broth dilution MIC; type: cell-based; conditions: Enterococcus faecalis
Description: as §1

[4] = system: Staphylococcus aureus 745524; experiment: Antibacterial activity, broth dilution MIC; type: cell-based
Description: as §1

[5] = system: Staphylococcus aureus ATCC 29213; experiment: Antibacterial activity, broth dilution MIC; type: cell-based
Description: as §1

[6] = Cytotoxic activity, MTT method; type: cell-based; conditions: human
Text: (§2) All data were obtained in triplicate and are presented as means.

[7] = system: A549 human lung cancer cell line; experiment: Cytotoxic activity, MTT method; type: cell-based; conditions: A549, read-out: Cytotoxic activities IC50, A549
Text: as §2

[8] = system: HeLa human cervical carcinoma cell line; experiment: Cytotoxic activity, MTT method; type: cell-based; conditions: read-out: Cytotoxic activities IC50, HeLa
Text: as §2

[9] = system: HepG2 human hepatocellular carcinoma cell line; experiment: Cytotoxic activity, MTT method; type: cell-based; conditions: HepG2, read-out: Cytotoxic activities IC50, HepG2
Text: as §2

[10] = system: MCF-7 human breast adenocarcinoma cell line; experiment: Cytotoxic activity, MTT method; type: cell-based; conditions: MCF7, read-out: Cytotoxic activities IC50, MCF-7
Text: as §2

[11] = system: MDA-MB-231 human triple negative breast adenocarcinoma cell line; experiment: Cytotoxic activity, MTT method; type: cell-based; conditions: MDA-MB-231, read-out: Cytotoxic activities IC50, MDA-MB-231
Text: as §2

[12] = system: MDA-MB-468 human triple negative breast adenocarcinoma cell line; experiment: Cytotoxic activity, MTT method; type: cell-based; conditions: MDA-MB-468, read-out: Cytotoxic activities IC50, MDA-MB-468
Text: as §2

[13] = system: RKO human colorectal carcinoma cell line; experiment: Cytotoxic activity, MTT method; type: cell-based; conditions: read-out: Cytotoxic activities IC50, RKO
Text: as §2

[14] = system: CytA; experiment: Enzyme kinetics of CytA (formation of deglycosylation products, anaerobic); type: biochemical, Streptomyces sp. SCSIO 1666; conditions: substrate of CytA; 0.5 μM CytA, 20 μM NADH, anaerobic
Description: Enzymatic reactions were carried out under anaerobic conditions in an anaerobic workstation (Don Whitley Scientific A45) containing a gas phase of N2/H2/CO2 (80:10: 10%, by vol.). ^1H, ^13C, and 2D (COSY, HMQC, HMBC and NOESY) NMR spectra were recorded at 25 °C with an Avance 700 MHz spectrometer instruments (Bruker). High-resolution mass spectra were obtained with a Maxis quadrupole-time-of-flight mass spectrometer (Bruker).
To validate the in vitro biochemical activities of CytA, we overexpressed and purified this enzyme as a soluble N-terminally His6-tagged protein from E. coli (Fig. 2a). Tris-Cl buffer was made O2 free by boiling, followed by cooling under N2 flow; NADH stock solution (dissolved in Tris-Cl), substrate stock solution (dissolved in DMSO), and enzyme solution (dissolved in Tris-Cl supplemented with 10% glycerin) were subjected to O2 eliminating process in the anaerobic workstations for at least two cycles (40 min for one cycle). CytA enzymatic activity was tested in 50 μL volume containing 50 mM Tris-Cl (pH 8.0), 25 μM substrate, 0.5 μM CytA, and 20 μM NADH, at 37 °C for 30 min. The reaction was quenched with the addition to 2 volumes MeOH. After centrifugation to remove protein, supernatants were analyzed with Agilent HPLC equipment using a Phenomenex Prodigy ODS column S5 (150 × 4.60 mm, 5 μ) and UV detection at 254 and 500 nm. Samples were eluted with a gradient elution of phase A containing 0.1% TFA in ddH2O and phase B containing 100% acetonitrile, at a flow rate of 1 mL/min.
Kinetic analyses of CytA with putative substrates 6–10, daunorubicin, doxorubicin, idarubicin, epirubicin and pirarubicin, involved a reaction volume of 20 μL consisting of 50 mM Tris-Cl (pH 8.0), 0.5 μM CytA, 20 μM NADH, […]
All assays were performed in triplicate and Km and Vmax values were calculated on the basis of curve fitting to the Michaelis-Menten equation: v = Vmax *[S]/(Km + [S]) (Supplementary Fig. 7).
For kinetics of CytA, Origin 9.0 (OriginLab Co.) was used to analyze on the basis of curve fitting to the Michaelis-Menten equation. Experiments were performed in triplicate independently. For antibacterial activity, experiments were performed in triplicate using 96-well plates.

[15] = ATCC29212, read-out: MIC values, EF
[16] = Staphylococcus aureus, 745524, read-out: MIC values, SA2
[17] = Staphylococcus aureus, ATCC29213, read-out: MIC values, SA1
[18] = Huvec-12 normal cell line, read-out: Cytotoxic activities IC50, Huvec-12
[19] = L02 normal cell line, read-out: Cytotoxic activities IC50, L02
[20] = B. subtilis BS01, triplicate, read-out: MIC values, BS
[21] = B. thuringiensis BT01, triplicate, read-out: MIC values, BT
[22] = ATCC29212, E. faecalis ATCC 29212, triplicate, read-out: MIC values, EF
[23] = Staphylococcus aureus 745524, triplicate, read-out: MIC values, SA2
[24] = ATCC29213, Staphylococcus aureus ATCC 29213, triplicate, read-out: MIC values, SA1

Structure (SMILES)	IC50 [6, 18] [µM]	IC50 [6, 19] [µM]	IC50 [7] [µM]	IC50 [8] [µM]	IC50 [9] [µM]	IC50 [10] [µM]	IC50 [11] [µM]	IC50 [12] [µM]	IC50 [13] [µM]	MIC [1, 20] [µg/mL]	MIC [2, 21] [µg/mL]	MIC [3, 22] [µg/mL]	MIC [4, 23] [µg/mL]	MIC [5, 24] [µg/mL]	further results
CC[C@@]1(O[C@H]2C[C@H](N(C)C)[C@H](O)[C@H](C)O2)CCc2c(O)c3c(c(O)c2[C@H]1O[C@H]1C[C@H](N(C)C)[C@H](O[C@H]2CC[C@H](O[C@H]4CC[C@H](O)[C@H](C)O4)[C@H](C)O2)[C@H](C)O1)C(=O)c1cccc(O)c1C3=O [Compound 1, cytorhodin X]	4.23	3.5	3.4	2.04	3.04	12.7	18.7	21.3	11.2	–	–	–	–	–	MIC ([1]; BS01, read-out: MIC values, BS): 2 µg/mL (≈ 2.19 µM); MIC ([2]; BT01, read-out: MIC values, BT): 4 µg/mL (≈ 4.38 µM); MIC [3, 15]: 2 µg/mL (≈ 2.19 µM); MIC [4, 16]: 2 µg/mL (≈ 2.19 µM); MIC [5, 17]: 2 µg/mL (≈ 2.19 µM)
CC[C@@]1(O[C@H]2C[C@H](N(C)C)[C@H](O)[C@H](C)O2)CCc2c(O)c3c(c(O)c2[C@H]1O[C@H]1C[C@H](N(C)C)[C@H](O[C@H]2C[C@H](O)[C@H](O[C@H]4CC[C@H](O)[C@H](C)O4)[C@H](C)O2)[C@H](C)O1)C(=O)c1cccc(O)c1C3=O [Compound 2, cytorhodin Y]	4.71	4.46	7.25	3.25	6.17	9.89	17.5	16.4	11.8	1 (≈ 1.08 µM)	4 (≈ 4.31 µM)	4 (≈ 4.31 µM)	1 (≈ 1.08 µM)	2 (≈ 2.15 µM)	–
CC[C@@]1(O)CCc2c(O)c3c(c(O)c2[C@H]1O)C(=O)c1cccc(O)c1C3=O [Compound 13]	–	–	–	–	–	–	–	–	–	> 32	> 32	> 32	> 32	> 32	–
CC[C@@]1(O)CCc2c(O)c3c(c(O)c2[C@H]1O[C@H]1C[C@H](N(C)C)[C@H](O[C@H]2CC[C@H](O[C@H]4CC[C@H](O)[C@H](C)O4)[C@H](C)O2)[C@H](C)O1)C(=O)c1cccc(O)c1C3=O [Compound 3, cosmomycin A]	0.31	0.42	0.032	0.15	0.023	0.82	1.36	0.81	0.083	0.5 (≈ 0.661 µM)	0.25 (≈ 0.331 µM)	0.06 (≈ 0.0794 µM)	0.125 (≈ 0.165 µM)	0.25 (≈ 0.331 µM)	–
CC1(C)S[C@@H]2[C@H](NC(=O)[C@H](N)c3ccccc3)C(=O)N2[C@H]1C(=O)O [Amp, Ampicillin, reference compound]	–	–	–	–	–	–	–	–	–	4 (≈ 11.4 µM)	4 (≈ 11.4 µM)	2 (≈ 5.72 µM)	8 (≈ 22.9 µM)	4 (≈ 11.4 µM)	–
COc1cccc2c1C(=O)c1c(O)c3c(c(O)c1C2=O)C[C@@](O)(C(=O)CO)C[C@@H]3O[C@H]1C[C@H](N)[C@H](O)[C@H](C)O1 [Compound 23, doxorubicin, reference compound]	–	–	2.31	0.83	0.41	0.9	16.9	2.11	1.45	–	–	–	–	–	Km [14]: 31 µM; kcat [14]: 0.0102 s⁻¹; IC50 ([6]; Huvec-12 normal umbilical vein endothelial cells, Huvec-12 normal cell line, read-out: Cytotoxic activities IC50, Huvec-12): 6.31 µM; IC50 ([6]; L02 normal hepatic cells, L02 normal cell line, read-out: Cytotoxic activities IC50, L02): 7.67 µM
CC[C@@]1(O)CCc2c(O)c3c(c(O)c2[C@H]1O[C@H]1C[C@H](N(C)C)[C@H](O)[C@H](C)O1)C(=O)c1cccc(O)c1C3=O [Compound 5, iremycin]	13.5	6.93	11.8	9.99	10.2	10.7	20.3	29.3	15.2	–	–	–	–	–	MIC ([1]; BS01, read-out: MIC values, BS): 8 µg/mL (≈ 15.2 µM); MIC ([2]; BT01, read-out: MIC values, BT): 16 µg/mL (≈ 30.3 µM); MIC [3, 15]: 8 µg/mL (≈ 15.2 µM); MIC [4, 16]: 8 µg/mL (≈ 15.2 µM); MIC [5, 17]: 8 µg/mL (≈ 15.2 µM)
